In brackets after ≈: the same amount, converted by molar mass.
What was measured:
MptpB = MptpB (Mycobacterium tuberculosis, UniProt I6WXK4); assay: biochemical; set-up: species or system M. tuberculosis
physchem = format: physicochemical; conditions: for logD: pH 7.4
Description: (§1) C = (CD(t) × VD) + (CA(t) × VA )
(§2) % Mass Retention = 1 − (CD(t) × VD) + (CA(t) × VA)
(§3) A = Filter Area, VD = Donor Well Volume, VA = Acceptor Well Volume, t = incubation time (secs), CA(t) = Acceptor concentration at time t, CD(t) =Donor concentration at time t, C0 = Initial Donor concentration.
(§4) No Permeability is reported for compounds where % Mass Retention exceeds 50%.
(§5) ADME determinations for compounds in Suppl. Table 2 (Data kindly supplied by […]
(§6) The chemicals used in the assay were supplied by Sigma Aldrich. Briefly, 30 µL of a 20 mM stock solution of the compound to test was added to a vial containing 1. 5 mL of pH 7.4 phosphate buffer saturated octanol and 1.5 mL of octanol saturated pH 7.4 phosphate buffer. The vial was then shaken on a reciprocating shaker at 125 rpm for 40 min.
(§7) Following centrifugation to ensure phase separation, the concentration of the compound in both the octanol and buffer phases was measured by LC -UV. The Log D was then calculated as the Log of ratio of the concentration of compound in the octanol phase to that in the […]
(§8) 1 mL of buffer was added to 1.0 mg of compound and then incubated for 24 hr (Bioshake iQ, 650 rpm, 25 °C). Following filtration under positive pressure, the concentration of compound in solution was assessed by LC -UV in comparison to the response for a kno wn […]
(§9) A known concentration of drug in plasma (20 µM) was dialysed against phosphate buffer for 18 hr at 37 °C. The concentration of compound in the protein-containing and protein-free sides of the dialysis plate were determined by LC-MS/MS. The methodology uses either 100% plasma or plasma diluted with phosphate buffer. The routine operation of the assay employed 10% plasma diluted with phosphate buffer to enable the detection of highly bound compounds. Results were corrected to reflect the result if diluted plasma was […]
(§10) Briefly, monolayer integrity was measured before the assay was initiated measuring the transepithelial electrical resistance values (Ω). Compound was added to either apical (A) or basolateral (B) chamber at a final concentration of 10 µM and after 2 hr incubation at 37 °C, an aliquot from the opposite side of the monolayer was removed and quantified by LC-MS/MS. The apparent permeability (P app) was calculated using Equation 6 :
(§11) Papp [cm.s-1] = (V/(A.C i)) × (Cf/T) Eq.6
(§12) Where V = volume of recipient chamber (mL), A = surface area of membrane insert (cm2), Ci = initial concentration of compound (µM), Cf = final concentration of compound (µM), T = assay time (s). Efflux ratio = Papp B to A / Papp A to B.

in vitro [1] = format: in vitro ADME, canine; conditions: dog, MDCK
Description: as §1, §2, §3, §4, §5, §6, §7, §8, §9, §10, §11, §12

[2] = Pharmacokinetic evaluation in guinea pigs; format: in vivo; conditions: guinea pig; for AUCinf / Cmax: in vivo, po; for t1/2: oral, dose mg/kg: 13 8, 5 5, 8 3.5, 9 5
Description: Guinea pig males (Durkin Hartley) were used to evaluate the pharmacokinetics and tissue distribution of compounds. The route of administration was either intraperitoneal (ip) or oral (po) with dosage varying from 3.5 to 8 mg kg^–1 (op) and 2.5–4 mg kg^–1 (ip). In each case 4 samples were collected per time point at 0.1, 0.5, 2, 4, and 8 h post dose for ip and 0.25, 0.5, 2, 4, and 8 h post dose for po. Compounds were prepared in 10% DMSO, 5% Cremaphor, and 85% physiological saline for IP administration or 0.5% (v/v) Tween 80, 99.5% (v/v) 0.5% methylcellulose for oral administration. Tissue samples (n = 4) from lung, liver, and kidney were collected at the end of the study and snap frozen prior to bioanalysis.

[3] = format: in vitro ADME; conditions: human, microsomes, 1 µM
Description: Data analysis was performed using Excel (Microsoft, USA).
Human liver microsomes were commercially obtained (Invitrogen, USA). All microsomes were stored at -80 °C. Liver microsomal stability studies were performed manually using the substrate depletion approach, drug was incubated at 37 °C with human liver microsomes (0.5 mg.mL-1) at a final substrate concentration of 1 µM. Aliquots were removed from the incubation at 0, 5, 15, 30 and 45 min and the reaction was terminated by adding to ice-cold organic solvent. Compound concentrations were determined by LC-MS/MS analysis. The natural log of the percentage of compound remaining was plotted against each time point and the slope determined. The half-life (t1/2) and CLint were calculated using Equations 1 and 2, respectively.
CLint (µL.min-1.mg-1) = (LN(2)/t1/2(min))*1000/microsomal protein (mg.mL-1)a Eq. 2 a or cell density (106 cells.mL-1) or P450 concentration (pmol.mL-1)
Percentage liver blood flow (%LBF) was determined by dividing Cl by liver blood flow (20.7 mL/min/kg). Data analysis was performed using Excel (Microsoft, USA).

in vitro [4] = format: in vitro ADME; conditions: plasma
Description: as §1, §2, §3, §4, §5, §6, §7, §8
A known concentration of drug in plasma (20 µM) was dialysed against phosphate buffer for 18 hr at 37 °C. The concentration of compound in the protein-containing and protein-free sides of the dialysis plate were determined by LC-MS/MS. The methodology uses either 100% plasma or plasma diluted with phosphate buffer. […]
as §10, with “: […]” for “:”

M. tuberculosis H37Rv = assay: Acute guinea pig model of TB infection; format: in vivo; conditions: 28 days of treatment, oral daily, 13 100 mg/kg, RIF 50 mg/kg
M. tuberculosis = format: in vivo, guinea pig
[5] = chronic model, 28 days of treatment from day 28, oral daily, 13 100 mg/kg, RIF 50 mg/kg

Chain of MptpB (I6WXK4 whole entry, looked up): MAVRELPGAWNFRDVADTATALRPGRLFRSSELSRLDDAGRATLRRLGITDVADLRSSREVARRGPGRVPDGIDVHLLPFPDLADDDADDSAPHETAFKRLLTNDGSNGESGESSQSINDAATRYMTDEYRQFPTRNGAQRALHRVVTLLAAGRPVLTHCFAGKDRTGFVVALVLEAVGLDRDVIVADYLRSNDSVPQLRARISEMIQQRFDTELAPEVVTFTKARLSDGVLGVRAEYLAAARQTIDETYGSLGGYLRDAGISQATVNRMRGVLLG

| SMILES | solubility at 24 h (physchem) [µg/mL] | logD (physchem) | Papp at 2 h, 10 µM (in vitro [1]) [×10⁻⁶ cm/s] | AUCinf [2] | Cmax [2] | t1/2 [2] | HLM CLint (% LBF) [3] [% LBF] | fraction unbound at 18 h, 20 µM (in vitro [4]) | further results |
| --- | --- | --- | --- | --- | --- | --- | --- | --- | --- |
| O=C(O)c1cc(-c2ccccc2)on1 [Compound 1, 5-Phenylisoxazole-3-carboxylic Acid] |  |  |  |  |  |  |  |  | IC50 (MptpB; IC50 (molecular formula strings csv)): > 500 µM; IC50 (MptpB; IC50 MptpB): > 500 µM |
| O=C(O)c1noc(-c2ccccc2)c1-c1cccc(-c2cc(Cl)c(O)c(Cl)c2)c1 [Compound 5, 4-(3′,5′-Dichloro-4′-hydroxy-3-biphenyl)-5-phenylisoxazole-3-carboxylic Acid] | 1180 (≈ 2.78 mM) | 0.84 | 0.8 | BLQ | BLQ | BLQ | 31 |  |  |
| O=C(O)c1noc(-c2ccccc2)c1-c1cccc(-c2cc(Cl)cc(Cl)c2)c1 [Compound 8, 4-(3′,5′-Dichoro-3-biphenyl)-5-phenylisoxazole-3-carboxylic Acid] |  |  |  | BLQ | BLQ | BLQ |  |  |  |
| Cc1cc(-c2cccc(-c3c(C(=O)O)noc3-c3ccccc3)c2)cc(C)c1O [Compound 9, 4-(3′,5′-Dimethyl-4′-hydroxy-3-biphenyl)-5-phenylisoxazole-3-carboxylic Acid] | > 1250 | 1.37 | 5.8 | BLQ | BLQ | BLQ | 36.4 | 0.001 |  |
| O=C(O)c1noc(-c2ccccc2)c1-c1cccc(-c2ccc(O)c(Cl)c2)c1 [Compound 10, 4-(3′-Chloro-4′-hydroxy-3-biphenyl)-5-phenylisoxazole-3-carboxylic Acid] | > 1250 | 1.3 | 3.3 |  |  |  | 33 | 0.001 | efflux ratio at 2 h, 10 µM (in vitro [1]): 0.8 |
| O=C(O)c1noc(-c2ccccc2)c1-c1cccc(-c2ccc(O)c(F)c2)c1 [Compound 11, 4-(3′-Fluoro-4′-hydroxy-3-biphenyl)-5-phenylisoxazole-3-carboxylic Acid] | > 1250 | 0.67 | 2.7 |  |  |  | 47.7 | 0.002 | efflux ratio at 2 h, 10 µM (in vitro [1]): 0.7 |
| CO[C@H]1/C=C/O[C@@]2(C)Oc3c(C)c(O)c4c(O)c(c(/C=N/N5CCN(C)CC5)c(O)c4c3C2=O)NC(=O)/C(C)=C\C=C\[C@H](C)[C@H](O)[C@@H](C)[C@@H](O)[C@@H](C)[C@H](OC(C)=O)[C@@H]1C [RIF, rifampicin, reference compound] |  |  |  |  |  |  |  |  | Lungs infection burden, average (M. tuberculosis H37Rv): BLQ; Spleen infection burden, average (M. tuberculosis H37Rv): BLQ; Lungs infection burden, average (M. tuberculosis; [5]): 3.7 log CFU; Lungs log reduction relative to vehicle (M. tuberculosis; [5]): 2.0 log; Spleen infection burden, average (M. tuberculosis; [5]): BLQ; Spleen log reduction relative to vehicle (M. tuberculosis; [5]): > 5.0 log; Lungs weight % change relative to Vehicle (M. tuberculosis; guinea pig, in vivo): -29%; Lungs weight, average (M. tuberculosis; guinea pig, in vivo): 3.8 g; Spleen weight % change relative to Vehicle (M. tuberculosis; guinea pig, in vivo): -73%; Spleen weight, average (M. tuberculosis; guinea pig, in vivo): 0.7 g |
